Results from US7632827B2, “Anti-cancer phosphine containing [AuIIIm(CNC)mL]n+ complexes and derivatives thereof and methods for treating cancer using such compositions” (The University of Hong Kong, priority 2006, dated 2009).

Key:
[1] = test system: SUNE1 (human nasopharyngeal carcinoma, cisplatin sensitive); assay: MTT cytotoxicity, SUNE1; format: cell-based; details: 72 h
Procedure: (§1) The cytotoxicities of the gold(III) compounds toward several human cancer cell lines including nasopharyngeal carcinoma (SUNE1, and its cisplatin variant CNE1), hepatocellular carcinoma (HepG2), and cervical epitheloid carcinoma (HeLa) were determined using a well-established MTT assay.

[2] = test system: CNE1 (human nasopharyngeal carcinoma, cisplatin resistance); assay: MTT cytotoxicity, CNE1; format: cell-based; details: 72 h
Procedure: as §1

[3] = test system: HeLa (human cervical epithelioid carcinoma); assay: MTT cytotoxicity, HeLa; format: cell-based; details: 72 h
Procedure: as §1

[4] = test system: HepG2 (human hepatocellular carcinoma); assay: MTT cytotoxicity, HepG2; format: cell-based; details: 72 h
Procedure: as §1

[5] = Cyclic voltammetry in DMF; format: physicochemical; details: comparison value
Text: The electrochemical properties of the gold(III) compounds in DMF were studied by cyclic voltammetry. As compared to KAuCl4 [E°gold(III)→gold(I)=−0.4 V], the substantially more cathodic potentials of −1.43 to −1.83 V vs Cp2Fe^+/0 required for the gold(III) reduction in all the gold(III) compounds is consistent with stabilization of gold(III) by the dianionic CNC ligand.

[6] = Solution stability (UV-vis, NMR); format: physicochemical; details: 24 h
cancers = assay: Potency against cancers compared with cis-platin
SUNE1 cells = assay: Cell cycle analysis by flow cytometry (propidium iodide); format: cell-based, human; details: 24- or 48-h incubation
Procedure: To find out whether cellular DNA is a major target of the gold(III) compounds, we studied the cell cycle profiles of 3d-treated cancer cells. Cell cycle analysis was performed by assessing the DNA content of cells stained with propidium iodide using flow cytometry. This enables quantification of the total cellular populations in the different phases of the cell cycle (G0/G1, S and G2/M). […] Compound 3d appears to affect its cytotoxicity via some alternative mechanistic pathways.

nude mice = assay: In vivo toxicity studies in nude mice
100-base pair DNA ladder = assay: Gel mobility shift assay (DNA intercalation); format: binding; details: 1.5% agarose gel, DNA 50 μM bp-1
Procedure: A gel mobility shift assay was employed to determine the intercalating property 3d [E. C. Long, J. K. Barton, Acc. Chem. Res. 1990, 23, 271] to evaluate the effect 3d, had upon the DNA binding affinities. A 100-base pair DNA ladder treated with 3d, or ethidium bromide (EB, DNA intercalator) as well as a control were resolved by agarose gel electrophoresis. Briefly, gel electrophoresis of 100-bp DNA ladder on a 1.5% (w/v) agarose gel was performed showing the mobility of DNA (50 μM bp-1) in the absence or presence of ethidium bromide (EB), or compound 3d. […] The bound DNA would have lower mobility compared to that of the free DNA.

[7] = test system: several human cancer cell lines; assay: Cytotoxic activities against several cancer cell lines (MTT); format: cell-based
Procedure: as §1
A number of structurally distinct gold(III)-phosphino compounds (3a-g) were synthesized and assayed for cytotoxic activities against several cancer cell lines (see Table 1). […] Whereas, shortening (n=1 or 2) or lengthening (n=4, 5 or 6) the hydrocarbon linker reduced the cytotoxicity, with IC50 values increasing by at least an order of magnitude.

Row | Compound | IC50 [1] [nM] | IC50 [2] [nM] | IC50 ratio (CNE1/SUNE1), resistance factor [2] | IC50 [3] [nM] | IC50 [4] [nM] | E° gold(III)→gold(I) [5] [V] | Stability on standing in DMSO or TBS (UV-vis, 31P, 1H NMR) [6] | potency against cancers relative to cis-platin (cancers) | Effect on cell cycle (SUNE1 cells) | toxicity to nude mice (nude mice; concentrations 20-fold higher than the effective dose) | DNA mutation upon usage (nude mice; mouse, in vivo) | DNA intercalation (tailing effect in gel) (100-base pair DNA ladder) | Relative cytotoxicity among metal-free and metallated 1,2-bis(diphenylphosphino)Cn compounds [7]
1 | c1ccc([P+](c2ccccc2)(c2ccccc2)[Au-]23[c]4ccccc4-c4cccc([n+]42)-c2cccc[c]23)cc1 [3a] | 17000 ± 2000 | 11000 ± 2000 | 0.65 | – | – | – | – | – | – | – | – | – | –
2 | O=S(=O)([O-])C(F)(F)F.O=S(=O)([O-])C(F)(F)F.c1ccc([P+](CCCC[P+](c2ccccc2)(c2ccccc2)[Au-]23[c]4ccccc4-c4cccc([n+]42)-c2cccc[c]23)(c2ccccc2)[Au-]23[c]4ccccc4-c4cccc([n+]42)-c2cccc[c]23)cc1 [3e, [Au2(CNC)2(μ-dppb)](CF3SO3)2] | 1500 ± 200 | 2200 ± 300 | 1.5 | 2400 ± 200 | – | – | – | – | – | – | – | – | –
3 | O=S(=O)([O-])C(F)(F)F.O=S(=O)([O-])C(F)(F)F.c1ccc([P+](CCCCC[P+](c2ccccc2)(c2ccccc2)[Au-]23[c]4ccccc4-c4cccc([n+]42)-c2cccc[c]23)(c2ccccc2)[Au-]23[c]4ccccc4-c4cccc([n+]42)-c2cccc[c]23)cc1 [3f, [Au2(CNC)2(μ-dpppe)](CF3SO3)2] | 1600 ± 300 | 2500 ± 300 | 1.6 | 1500 ± 300 | – | – | – | – | – | – | – | – | –
4 | O=S(=O)([O-])C(F)(F)F.O=S(=O)([O-])C(F)(F)F.c1ccc([P+](CCCCCC[P+](c2ccccc2)(c2ccccc2)[Au-]23[c]4ccccc4-c4cccc([n+]42)-c2cccc[c]23)(c2ccccc2)[Au-]23[c]4ccccc4-c4cccc([n+]42)-c2cccc[c]23)cc1 [3g, [Au2(CNC)2(μ-dpph)](CF3SO3)2] | 4300 ± 900 | 3200 ± 500 | 0.74 | 3200 ± 400 | – | – | – | – | – | – | – | – | –
5 | O=S(=O)([O-])C(F)(F)F.O=S(=O)([O-])C(F)(F)F.O=S(=O)([O-])C(F)(F)F.c1ccc([P+](CC[P+](c2ccccc2)(c2ccccc2)[Au-]23[c]4ccccc4-c4cccc([n+]42)-c2cccc[c]23)(CC[P+](c2ccccc2)(c2ccccc2)[Au-]23[c]4ccccc4-c4cccc([n+]42)-c2cccc[c]23)[Au-]23[c]4ccccc4-c4cccc([n+]42)-c2cccc[c]23)cc1 [3h, [Au3(CNC)3(μ-dpep)](CF3SO3)3] | 260 ± 30 | 400 ± 50 | 1.5 | 930 ± 90 | 3800 ± 600 | – | – | – | – | – | – | – | –
6 | [Cl][Au-]([Cl])([Cl])[Cl].[K+] [KAuCl4] | – | – | – | – | – | −0.4 | – | – | – | – | – | – | –
7 | [Cl-].[Cl][Pt-2]12[n+]3ccccc3-c3cccc([n+]31)-c1cccc[n+]12 [[Pt(terpy)Cl]Cl, reference compound] | 11000 ± 3000 | 13000 ± 2000 | 1.2 | 14000 ± 2000 | 23000 ± 3000 | – | – | – | – | – | – | – | –
8 | N.N.[Cl][Pt][Cl] [cisplatin, reference compound] | 1000 ± 100 | 3300 ± 500 | 3.3 | 11000 ± 1000 | 1600 ± 200 | – | – | – | – | – | – | – | –
9 | O=S(=O)([O-])C(F)(F)F.O=S(=O)([O-])C(F)(F)F.c1ccc([P+](CCC[P+](c2ccccc2)(c2ccccc2)[Au-]23[c]4ccccc4-c4cccc([n+]42)-c2cccc[c]23)(c2ccccc2)[Au-]23[c]4ccccc4-c4cccc([n+]42)-c2cccc[c]23)cc1 [compound 3d, [Au2(CNC)2(μ-dppp)](CF3SO3)2] | 55 | 91 | 1.7 | 43 | 210 ± 90 | – | no UV-vis, ^31P or ^1H NMR spectral changes | about 200 times | did not significantly affect the cell cycle | non-toxic | does not cause DNA mutation | does not bind to DNA by intercalation | most cytotoxic
